In this experiment the target is T1, human FXR (NR1H4) (Homo sapiens, UniProt Q96RI1).
T1 sequence (Q96RI1 1-486): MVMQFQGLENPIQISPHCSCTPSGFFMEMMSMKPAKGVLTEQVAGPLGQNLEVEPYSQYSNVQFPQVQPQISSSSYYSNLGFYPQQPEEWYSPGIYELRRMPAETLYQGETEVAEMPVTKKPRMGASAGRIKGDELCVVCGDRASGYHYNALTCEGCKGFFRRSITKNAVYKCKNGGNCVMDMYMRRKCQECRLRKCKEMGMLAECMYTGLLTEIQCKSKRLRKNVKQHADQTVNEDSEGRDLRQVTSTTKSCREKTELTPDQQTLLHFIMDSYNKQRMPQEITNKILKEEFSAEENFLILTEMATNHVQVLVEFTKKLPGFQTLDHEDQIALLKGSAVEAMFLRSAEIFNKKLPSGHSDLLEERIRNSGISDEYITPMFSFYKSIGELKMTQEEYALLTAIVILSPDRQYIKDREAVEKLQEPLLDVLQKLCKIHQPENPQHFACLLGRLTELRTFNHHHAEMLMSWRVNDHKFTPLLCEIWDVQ
The experiment is described as follows: Human FXR (NR1H4) Assay: Gal4 promoter driven luciferase reporter transactivation in CHO cells (Indigo Bioscience kit IB00601). In kind it is cell-based. The following applies: for Emax: CHO, read-out: Efficacy (%); for EC50: potency range, Human FXR (NR1H4) reporter assay in CHO cells, read-out: EC50. The method in brief:
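CHO reporter cells expressing human NR1H4 with luciferase driven by an FXR-responsive promoter (Gal4 system), run per manufacturer's kit. Compounds applied to plated cells, then incubated a further 22 hours at 37° C. Luciferase luminescence read after detection reagent as a surrogate of FXR activation, giving potency and efficacy.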
(A reporter such as luciferase makes a cellular process visible.)

The mark [1] stands for this setting: efficacy normalized to CDCA set as 100%.

Read-outs that look alike come from different tables or passages of the source. Bounds are passed on as bounds.

The term EC50 denotes the concentration needed to bring the measured effect to its halfway point.

Turning to `CCOC(=O)c1ccnc(NC(=O)N2C3CCC2CC(OCc2c(-c4ccccc4OC(F)(F)F)noc2C2CC2)C3)c1` (centres unmarked) [Example 765], the EC50 was 10 to 100 nM. For the same molecule, the Emax under setting [1] stood at 272%. For `O=C(O)c1ccc(NC(=O)N2C3CCC2CC(OCc2c(-c4c(Cl)cccc4Cl)noc2C2CC2)C3)cc1C(F)(F)F` (centres unmarked) [Example 195], the EC50 was in the range of 10 to 100 nM.

For the molecule `COC(=O)c1ccc2nc(NC(=O)N3C4CCC3CC(OCc3c(-c5c(Cl)cccc5Cl)noc3C3CC3)C4)ccc2c1` (centres unmarked) [Example 785], the EC50 is 10 to 100 nM. Besides, under setting [1], the Emax is 46%. The like results for `COC(=O)c1ccc(NC(=O)N2C3CCC2CC(OCc2c(-c4ccccc4OC(F)(F)F)noc2C2CC2)C3)nc1` (centres unmarked) [Example 764] were, in that order, 100 to 1000 nM and 230%. Turning to `CCOC(=O)c1ccc2nc(NC(=O)N3C4CCC3CC(OCc3c(-c5c(Cl)cccc5Cl)noc3C3CC3)C4)sc2c1` (centres unmarked) [Example 804], the EC50 was in the range of 10 to 100 nM. Also, the Emax under setting [1] is 90%. With `O=C(O)c1ccc2c(c1)CN(C(=O)N1C3CCC1CC(OCc1c(-c4ccccc4OC(F)(F)F)noc1C1CC1)C3)C2` (centres unmarked) [Example 598], the Emax worked out at 105% and the EC50 lay in the range of 10 to 100 nM. Turning to `O=C(O)c1ccc2c(c1)CN(C(=O)N1C3CCC1CC(OCc1c(-c4ccccc4OC(F)(F)F)noc1C1CC1)C3)CC2` (centres unmarked) [Example 834], the EC50 fell in the range of 100 to 1000 nM. Further, the Emax under setting [1] was 102%.

In the case of `O=C(O)c1cccc(F)c1NC(=O)N1C2CCC1CC(OCc1c(-c3ccccc3OC(F)(F)F)noc1C1CC1)C2` (centres unmarked) [Example 768], the half-maximal effective concentration (EC50) is over 1000 nM. In addition, the Emax under setting [1] was 33%. As for `CCOC(=O)c1ccc(NC(=O)N2C3CCC2CC(OCc2c(-c4ccccc4OC(F)(F)F)noc2C2CC2)C3)cc1` (centres unmarked) [Example 228], the EC50 is 100 to 1000 nM. As for `N#Cc1cccc(NC(=O)N2C3CCC2CC(NCc2c(-c4c(Cl)cccc4Cl)noc2C2CC2)C3)c1` (centres unmarked) [Example 93], the EC50 is 10 to 100 nM. Take `O=C(O)c1ccc(F)c(NC(=O)N2C3CCC2CC(OCc2c(-c4c(Cl)cccc4Cl)noc2C2CC2)C3)c1` (centres unmarked) [Example 723]: the concentration giving a half-maximal response (EC50) was 100 to 1000 nM. The Emax under setting [1] was 140%. In the case of `O=C(Nc1nc2ccccc2s1)N1C2CCC1CC(OCc1c(-c3c(Cl)cccc3Cl)noc1C1CC1)C2` (centres unmarked) [Example 23], the EC50 is 10 to 100 nM. The same measure, in the same setting: as for `CN(C)C(=O)c1cccc(NC(=O)N2C3CCC2CC(OCc2c(-c4c(Cl)cccc4Cl)noc2C2CC2)C3)c1` (centres unmarked) [Example 215], the figure is under 10 nM. Consider `CC(C)S(=O)(=O)NC(=O)c1ccc(NC(=O)N2C3CCC2CC(OCc2c(-c4ccccc4OC(F)(F)F)noc2C2CC2)C3)cc1` (centres unmarked) [Example 754], for which the EC50 was 100 to 1000 nM. Further, the Emax under setting [1] was 236%.

Consider `O=C(Nc1cccc(C2=CCCCC2)c1)N1C2CCC1CC(OCc1c(-c3c(Cl)cccc3Cl)noc1C1CC1)C2` (centres unmarked) [Example 711], for which the EC50 was under 10 nM. Moreover, the Emax under setting [1] came to 157%.

Regarding `CC(C)(C)c1ccc(C(=O)NC(=O)N2C3CCC2CC(OCc2c(-c4c(Cl)cccc4Cl)noc2C2CC2)C3)cc1` (centres unmarked) [Example 806], the concentration giving a half-maximal response (EC50) lay within 10 to 100 nM. The Emax under setting [1] came to 5%. The like results for `O=C(O)c1ccc(NC(=O)N2C3CCC2CC(OCc2c(-c4ccccc4C(F)(F)F)noc2C2CC2)C3)c(C(F)(F)F)c1` (centres unmarked) [Example 817] were, in that order, 10 to 100 nM and 20%. Taken in the same sequence, the figures for `O=C(Nc1cccc(C2CCCCC2)c1)N1C2CCC1CC(OCc1c(-c3c(Cl)cccc3Cl)noc1C1CC1)C2` (centres unmarked) [Example 712] were 10 to 100 nM and 144%.

With `COc1ccc(CNC(=O)N2C3CCC2CC(OCc2c(-c4c(Cl)cccc4Cl)noc2C2CC2)C3)cc1` (centres unmarked) [Example 731], the EC50 was under 10 nM. The Emax under setting [1] was determined as 229%. On to `O=C(O)c1ccc(NC(=O)N2C3CCC2CC(OCc2c(-c4ccccc4OC(F)(F)F)noc2C2CC2)C3)cc1` (centres unmarked) [Example 230], for which the EC50 was 10 to 100 nM.

`COC(=O)c1cccc(F)c1NC(=O)N1C2CCC1CC(OCc1c(-c3ccccc3OC(F)(F)F)noc1C1CC1)C2` (centres unmarked) [Example 763]: the EC50 was in the range of 100 to 1000 nM. Also, the Emax under setting [1] amounted to 211%. For `O=C(N[C@H]1CC[C@H](C(=O)O)CC1)N1C2CCC1CC(OCc1c(-c3ccccc3OC(F)(F)F)noc1C1CC1)C2` (some centres unmarked) [Example 266], the concentration for a half-maximal effect (EC50) was 100 to 1000 nM.

For the molecule `O=C(Nc1cccc(-c2nnn[nH]2)c1)N1C2CC[C@H]1CC(OCc1c(-c3c(Cl)cccc3Cl)noc1C1CC1)C2` (some centres unmarked) [Example 185], the concentration for a half-maximal effect (EC50) lay in the range of 100 to 1000 nM.

The values above are taken from US10597391B2, “Urea-containing isoxazole derivatives as FXR agonists and methods of use thereof” (Enanta Pharmaceuticals, Inc., priority 2016, dated 2020).
